Consider eight compounds from US11320438B2, “Isotopic methods for measurement of tryptophan and metabolites thereof” (ELECTROPHORETICS LIMITED, priority 2015, dated 2022).

In one series the test system is human dendritic cells. Kind of series: 1-MT degradation in interferon-gamma stimulated human dendritic cells. In kind it is in vitro ADME. Particulars: IFN gamma, after 6 days of incubation. On the procedure: (§1) SKOV-3 ovarian carcinoma cells were cultured in McCoy's 5A Medium (BioConcept, Allschwil, Switzerland) supplemented with L-Tryptophan as indicated (Sigma-Aldrich, Taufkirchen, Germany), 300 mg/l Glutamine (Carl Roth, Karlsruhe, Germany), 10% FBS (Thermo Fisher Scientific Inc., Waltham, Mass., USA) and 100 U/mL penicillin and 100 μg/mL streptomycin (PAA Laboratories, Pasching, Austria). Human embryonic kidney (HEK) cells were cultured in DMEM (PAA Laboratories), 10% FBS (Thermo Scientific) and 100 U/mL penicillin and 100 μg/mL streptomycin (PAA Laboratories). Peripheral blood mononuclear cells (PBMC) were isolated from healthy, non-related blood-donors by density-gradient centrifugation using lymphocyte separation medium LSA 1077 (PAA Laboratories) and cultured in RPMI 1640 (PAA Laboratories) containing 10% FBS (Thermo Fisher Scientific Inc) and 100 U/mL penicillin and 100 μg/mL streptomycin (PAA Laboratories). For the generation of dendritic cells (DC), CD14+ cells were separated using the magnetic activated cell sorting (MACS) technology (Miltenyi Biotec, Bergisch Gladbach, Germany) and plated in RPMI 1640 (Cambrex, Verviers, Belgium) containing 10% FBS, 200 IU/mL interleukin-4 and 1000 IU/mL GM-CSF (Immunotools, Friesoythe, Germany) for 7 days. All cells were routinely tested for contamination by the Multiplex cell Contamination Test (44). Cultures were incubated at 37° C. in a 5% CO2 atmosphere. 20 mM stock solutions (of 1-methyl-D-tryptophan (1-D-MT, lot numbers: 09315BH, 08007EJ) and 1-methyl-L-tryptophan (1-L-MT, lot numbers: 08023HE, 15399MJ) (Sigma-Aldrich) were prepared by dissolving the inhibitors in 0.1 N NaOH. The pH was adjusted to 7.5 using hydrochloric acid. To avoid contamination of the cell cultures, the stock solutions were filtered through 0.2 μm filters. Interferon-gamma (IFN-g) was purchased from Immunotools (Friesoythe, Germany).
(§2) 50 μL of each single cell culture supernatant was labelled with TMT® sixplex reagents (Thermo Fisher Scientific).
(§3) Samples were either measured on a QTof II (Waters) mass spectrometer coupled to an UPLC nanoLC (Waters) on an LTQ Orbitrap Velos Pro (Thermo Scientific) coupled to a Proxeon nanoLC-II (Thermo Scientific) or a triple quadrupole system coupled to nanoLC-II (EASY-nLC II TSQ Vantage system). The samples were resolved in 150 μl 2% ACN, 0.1% formic acid (1 μL sample=1 μL mixed supernatant equivalent).
Immune cells can also express tryptophan-degrading enzymes and tryptophan degradation is known to exert potent immunosuppressive effects (9). To assess whether also immune cells, such as dendritic cells, degrade 1-MT to methyl-kynurenine, three independent biological samples of supernatants of human dendritic cells from two different donors were analysed (only donor 1 shown). […]

The next series addresses T1, TDO (Homo sapiens, UniProt P48775).
T1 construct: expressed in transfected cells; host or cells: HEK293 cells, neomycin-selected
Kind of series: Degradation in supernatants of HEK cells expressing TDO. In kind it is in vitro ADME. Particulars: day 0 vs day 6. How it is done:
SKOV-3 ovarian carcinoma cells were cultured in McCoy's 5A Medium (BioConcept, Allschwil, Switzerland) supplemented with L-Tryptophan as indicated (Sigma-Aldrich, Taufkirchen, Germany), 300 mg/l Glutamine (Carl Roth, Karlsruhe, Germany), 10% FBS (Thermo Fisher Scientific Inc., Waltham, Mass., USA) and 100 U/mL penicillin and 100 μg/mL streptomycin (PAA Laboratories, Pasching, Austria). Human embryonic kidney (HEK) cells were cultured in DMEM (PAA Laboratories), 10% FBS (Thermo Scientific) and 100 U/mL penicillin and 100 μg/mL streptomycin (PAA Laboratories). […] All cells were routinely tested for contamination by the Multiplex cell Contamination Test (44). Cultures were incubated at 37° C. in a 5% CO2 atmosphere.
The full length cDNA sequence of IDO1 and TDO was cloned via Gateway® cloning into pDEST-Flag-C, a Gateway® compatible overexpression vector containing a single C-terminal FLAG-tag, resulting in pDEST-TDO-FLAG-C and pDEST-IDO1-FLAG-C.
Basis for the pDEST-FLAG-C was the pDEST26 vector (Invitrogen). The 6×His-tag of pDEST26 was removed with site-directed mutagenesis PCR, resulting in pDEST. The single C-terminal Flag-tag was introduced into pDEST, by site-directed mutagenesis PCR, resulting in Flag-C. […] Cells were selected using 1.5 mg/ml neomycin (Sigma-Aldrich).
as §2, §3

A further series deals with SKOV-3 cells. Description: Degradation of tryptophan and 1-MT in SKOV-3 cell culture supernatants (TMT sixplex LC-MS/MS). Particulars: for degradation to methyl-kynurenine: days 0-6, 1000 μM 1-MT with 70 μM tryptophan, or 200 μM 1-MT with no added tryptophan; for depletion of the substance from the media: after 6 days of incubation. The series is classed as in vitro ADME, human. How it is done:
as §1, §2
The dry TMT® sixplex mixtures were reconstituted in 300 μL of water:acetonitrile 95:5 with 0.1% trifluoroacetic acid (buffer A). 150 μL were fractionated by reversed phase chromatography (Nucleosil 120-5 C18 column, 250 mm×4.6 mm, Macherey Nagel) using a Waters 2695 HPLC with UV detection at 214 nm. After loading, the sample was washed 4 min with buffer A. Then, the substances were eluted by increasing the acetonitrile content within 40 min to 55%. The flow rate was kept at 1.5 mL/min over the entire gradient. The fraction from 18-30 minutes was collected and dried.
as §3
The SIM m/z range was from 350-500 Th with a resolution of 60000 and an AGC setting of 5e4 with a maximum scan time of 500 ms. MS/MS was acquired as TOP10 in HCD mode with a resolution of 7500 and an AGC setting of 5e4 with a maximum scan time of 500 ms. Isolation width was 1.5 amu and normalized collision energy was 60. The default charge state of the precursor was set to z=1. All other charge states were rejected. Analytes of interest were acquired in MSMS mode using an inclusion list only mode (±50 ppm) and all other analytes not included in the list were discarded.

The target of series [1] is T2, aryl hydrocarbon receptor (Homo sapiens, UniProt P35869).
T2 construct: Treatment of SKOV-3 cells with 1-D/L-MT under tryptophan-free conditions induced the AHR target genes CYP1A1 and TIPARP; endogenous in cells; host or cells: SKOV-3 ovarian carcinoma cells
T2 sequence (P35869 11-848): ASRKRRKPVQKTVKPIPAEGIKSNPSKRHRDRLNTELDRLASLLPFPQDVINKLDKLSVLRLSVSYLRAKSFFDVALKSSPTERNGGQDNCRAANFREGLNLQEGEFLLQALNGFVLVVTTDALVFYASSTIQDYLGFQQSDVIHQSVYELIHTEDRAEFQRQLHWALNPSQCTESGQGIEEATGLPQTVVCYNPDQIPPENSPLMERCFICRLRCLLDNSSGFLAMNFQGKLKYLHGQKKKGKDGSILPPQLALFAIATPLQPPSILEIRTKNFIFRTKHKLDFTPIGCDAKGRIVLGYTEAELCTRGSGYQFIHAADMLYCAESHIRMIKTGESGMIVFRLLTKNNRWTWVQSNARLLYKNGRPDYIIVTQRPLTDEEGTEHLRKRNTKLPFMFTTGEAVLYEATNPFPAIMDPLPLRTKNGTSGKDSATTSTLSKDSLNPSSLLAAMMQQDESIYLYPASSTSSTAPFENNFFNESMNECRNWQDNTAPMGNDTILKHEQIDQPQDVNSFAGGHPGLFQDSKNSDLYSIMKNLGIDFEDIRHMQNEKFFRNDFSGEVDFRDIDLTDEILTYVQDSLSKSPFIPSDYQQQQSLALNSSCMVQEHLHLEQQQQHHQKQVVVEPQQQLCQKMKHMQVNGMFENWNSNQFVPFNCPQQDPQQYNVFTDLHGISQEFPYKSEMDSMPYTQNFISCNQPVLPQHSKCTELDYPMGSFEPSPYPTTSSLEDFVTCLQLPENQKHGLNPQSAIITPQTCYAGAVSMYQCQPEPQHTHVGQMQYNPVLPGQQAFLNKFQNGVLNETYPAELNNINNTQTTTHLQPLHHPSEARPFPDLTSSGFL
Kind of series: qRT-PCR of AHR target genes in SKOV-3 cells. The series is classed as cell-based. How it is done:
as §1, with “20 mM stock solutions (of 1-methyl-D-tryptophan (1-D-MT, lot numbers: 09315BH, 08007EJ) and 1-methyl-L-tryptophan (1-L-MT, lot numbers: 08023HE, 15399MJ) (Sigma-Aldrich) were prepared by dissolving the inhibitors in 0.1 N NaOH. The pH was adjusted to 7.5 using hydrochloric acid. To avoid contamination of the cell cultures, the stock solutions were filtered through 0.2 μm filters. Interferon-gamma (IFN-g) was purchased from Immunotools (Friesoythe, Germany).” left out
Total RNA was isolated with the Qiagen RNAeasy RNA isolation kit (Hilden, Germany) and cDNA was synthesized with the Applied Biosystems reverse-transcription-Kit (Foster City, USA) according to manufacturer's instructions. […] The size of the amplicons was analyzed by loading the samples and a 100 bp ladder (Invitrogen, Leek, Netherlands) on a 2% agarose gel, which was then stained with ethidium bromide and analyzed under UV light. […] Relative quantification of gene expression was determined by comparison of threshold values. […]
(In qPCR the cycle at which signal appears reflects the starting amount.)

A short description of series [2]: Serum analysis of LPS-stimulated mice injected with 1-L-MT. Particulars: 1 mg/mouse 1-L-MT i.p.
Experimental: Animal work was supervised by institutional animal protection officials in accordance with the National Institute of Health guidelines Guide for the Care and Use of Laboratory Animals. C57BL/6N mice were purchased from Charles River (Sulzfeld, Germany). […] The blood was centrifuged to obtain serum, which was finally prepared for LC-MS/MS measurements.
50 μL of serum sample was precipitated with 50 μL TCA-solution (60 g/l) at 4° C. overnight. The suspension was centrifuged for 15 minutes at 4° C. at 6000 g. The pellet was discarded and the supernatant used for further experiments after neutralization with 1 M NaOH to pH 7-8.
66 μL of each precipitated and neutralized mouse serum sample were diluted with 6 μL of 1M triethylammonium bicarbonate (TEAB, Sigma-Aldrich) and then 24 μL of a 60 mM TMT reagent stock solution in ACN (LichroSolv, VWR) were added. The reaction was incubated for 1 hour at room temperature and finally quenched by adding 12 μL of 2.5% aqueous hydroxylamine solution (Sigma-Aldrich). The respective six labelled serum samples to be compared were mixed and dried.
For the Orbitrap MS runs the mixed mouse serum sample was dissolved in 2% ACN, 0.1% formic acid and ˜0.88 μL of mixed serum equivalent was loaded on column.
The subject of the next series is HEK control cells (WT). Kind of series: Degradation in supernatants of HEK control cells (WT). In kind it is in vitro ADME, human. Conditions: data not shown. On the procedure: SKOV-3 ovarian carcinoma cells were cultured in McCoy's 5A Medium (BioConcept, Allschwil, Switzerland) supplemented with L-Tryptophan as indicated (Sigma-Aldrich, Taufkirchen, Germany), 300 mg/l Glutamine (Carl Roth, Karlsruhe, Germany), 10% FBS (Thermo Fisher Scientific Inc., Waltham, Mass., USA) and 100 U/mL penicillin and 100 μg/mL streptomycin (PAA Laboratories, Pasching, Austria). Human embryonic kidney (HEK) cells were cultured in DMEM (PAA Laboratories), 10% FBS (Thermo Scientific) and 100 U/mL penicillin and 100 μg/mL streptomycin (PAA Laboratories). Peripheral blood mononuclear cells (PBMC) were isolated from healthy, non-related blood-donors by density-gradient centrifugation using lymphocyte separation medium LSA 1077 (PAA Laboratories) and cultured in RPMI 1640 (PAA Laboratories) containing 10% FBS (Thermo Fisher Scientific Inc) and 100 U/mL penicillin and 100 μg/mL streptomycin (PAA Laboratories). […]
Samples were either measured on a QTof II (Waters) mass spectrometer coupled to an UPLC nanoLC (Waters) on an LTQ Orbitrap Velos Pro (Thermo Scientific) coupled to a Proxeon nanoLC-II (Thermo Scientific) or a triple quadrupole system coupled to nanoLC-II (EASY-nLC II TSQ Vantage system). […]

The mark [3] stands for this setting: SKOV-3 cells, tryptophan-free conditions, qRT-PCR.

Structures are written as SMILES.

T1 sequence (P48775 whole entry): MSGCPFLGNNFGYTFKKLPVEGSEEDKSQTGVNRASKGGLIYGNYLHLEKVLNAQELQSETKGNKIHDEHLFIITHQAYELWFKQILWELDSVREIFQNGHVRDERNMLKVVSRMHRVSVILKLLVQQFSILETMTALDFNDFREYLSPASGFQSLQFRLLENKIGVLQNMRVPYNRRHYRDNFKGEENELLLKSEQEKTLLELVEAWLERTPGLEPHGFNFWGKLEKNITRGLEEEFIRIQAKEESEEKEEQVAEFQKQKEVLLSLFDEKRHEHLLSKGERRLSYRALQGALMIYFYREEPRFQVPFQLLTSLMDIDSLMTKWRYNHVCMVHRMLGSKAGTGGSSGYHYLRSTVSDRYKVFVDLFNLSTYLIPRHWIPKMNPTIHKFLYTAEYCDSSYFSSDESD

As for `Cn1cc(C[C@@H](N)C(=O)O)c2ccccc21` [1-D-MT, 1-methyl-D-tryptophan], in the series with human dendritic cells, the “methyl-kynurenine in the media” value is on record as “increase in methyl-kynurenine” and the “reduction of substrate in the media” value was “no clear reduction”. Moreover, the “increase in methyl-kynurenine after treatment” value at TDO was “not”. The “metabolism of tryptophan to kynurenine in treated samples” value in the series with SKOV-3 cells (D-MT compared with L-MT samples) was “more quickly and higher kynurenine levels were reached”. Further, the degradation to methyl-kynurenine result in the series with SKOV-3 cells is “degraded to methyl-kynurenine”.

In the case of `Cn1cc(CC(N)C(=O)O)c2ccccc21` [1-D/L-MT], in series [1] (setting [3]), the “induction of AHR target gene CYP1A1” value is recorded as “induced” and the “induction of AHR target gene TIPARP” value is on record as “induced”.

Regarding `Cn1cc(C[C@H](N)C(=O)O)c2ccccc21` [1-L-MT, 1-methyl-L-tryptophan], in the series with human dendritic cells, the “methyl-kynurenine in the media” value was “increase in methyl-kynurenine” and the “reduction of substrate in the media” value is on record as “reduction”. Further, the “increase in methyl-kynurenine after treatment” value at TDO is listed as “very slight increase”. Also, in the series on SKOV-3 cells, the “depletion of the substance from the media” value (“depletion of the substance” below) is listed as “completely depleted” and the degradation to methyl-kynurenine entry was “degraded more quickly than 1-D-MT”. In addition, in series [2], the “serum methyl-kynurenine versus mice treated with LPS alone” value is “significantly higher concentrations of methyl-kynurenine”.

For `Cn1cc(C[C@H](N)C(=O)O)c2ccccc21` [1-MT, 1-methyl-tryptophan], the “degradation by HEK control cells” value in the series with HEK control cells (WT) is on record as “degraded neither”. In addition, the “degradation / decrease of substrate in cell supernatants” value on TDO is listed as “no decrease”.

As to `N[C@H](Cc1c[nH]c2ccccc12)C(=O)O` [D-tryptophan], the “depletion of the substance” value in the series on SKOV-3 cells was “not entirely depleted”.

In the case of `N[C@@H](Cc1c[nH]c2ccccc12)C(=O)O` [L-tryptophan], in the series with SKOV-3 cells, the “depletion of the substance” value is reported as “completely depleted”.

In the case of `CNc1ccccc1C(=O)C[C@H](N)C(=O)O` [methyl-kynurenine, (S)—N-methyl kynurenine], the “activation of the AHR” value in series [1] (inferred from treatment of SKOV-3 cells with 1-D/L-MT) was “capable of activating the AHR”.

On to `N[C@@H](Cc1c[nH]c2ccccc12)C(=O)O` [tryptophan], for which, in the series with HEK control cells (WT), the “degradation by HEK control cells” value is “degraded neither”. Further, on TDO, the “degradation / decrease of substrate in cell supernatants” value is given as “degraded tryptophan to kynurenine”.
